Assay results taken from patent US7279582B2, “Retroviral protease inhibiting compounds” (priority 1995, dated 2007).

Columns and labels:
HIV protease = HIV protease (Human immunodeficiency virus type 1 group M subtype B, UniProt P04585); test: Fluorogenic assay for screening inhibitors of HIV protease; assay type: biochemical
Description: Fluorogenic Assay for Screening Inhibitors of HIV Protease
The inhibitory potency of the compound of the invention can be determined by the following method.
The compound of the invention is dissolved in DMSO and a small aliquot further diluted with DMSO to 100 times the final concentration desired for testing. The reaction is carried out in a 6×50 mm tube in a total volume of 300 microliters. The final concentrations of the components in the reaction buffer are: 125 mM sodium acetate, 1 M sodium chloride, 5 mM dithiothreitol, 0.5 mg/ml bovine serum albumin, 1.3 μM fluorogenic substrate, 2% (v/v) dimethylsulfoxide, pH 4.5. After addition of inhibitor, the reaction mixture is placed in the fluorometer cell holder and incubated at 30° C. for several minutes. The reaction is initiated by the addition of a small aliquot of cold HIV protease. The fluorescence intensity (excitation 340 nm, emmision 490 nM) is recorded as a function of time. The reaction rate is determined for the first six to eight minutes. The observed rate is directly proportional to the moles of substrate cleaved-per unit time. The percent inhibition is 100×(1−(rate in presence of inhibitor)/(rate in absence of inhibitor)).
Fluorogenic substrate: Dabcyl-Gaba-Ser-Gln-Asn-Tyr-Pro-lle-Val-Gln-EDANS wherein DABCYL=4-(4-dimethylamino-phenyl)azobenzoic acid, Gaba=γ-aminobutyric acid, and EDANS=5-((2-aminoethyl)amino)-naphthalene-1-sulfonic acid.

HIVIIIB = test: Anti-HIV activity in MT4 cells infected with HIVIIIB (MTT readout); assay type: cell-based; conditions: 0% plasma, 5 days, n=4 duplicate determinations
Text: (§1) The anti-HIV activity of the compound of the invention can be determined in MT4 cells according to the following procedure. MT4 cells were infected with cell-free supernatant of HIVIIIB (previously frozen with known 50% tissue culture infectious dose (TCID50) at 0.003 multiplicity of infection (MOI) for one hour. After one hour infection, cells were washed twice to remove residual viruses, resuspended in culture media and seeded into 96-well tissue culture plates at 1×10^4 cells per well with various half-log dilutions of compounds. Uninfected cells are included as toxicity and cell controls. RPMI 1640 media (Gibco) with 10% fetal bovine serum were used as culture media. Various concentrations of human serum (Sigma) 50%, 25% and 12.5% were added to culture media resulting in final concentration of 60%, 35% and 22.5% total serum. All assay plates were incubated in 37 deg. cent. incubator for 5 days. MTT (sigma, 5 mg/ml stock in PBS) was added to all wells at 25 ul per well, incubate for 4 hours. 20% SDS with 0.02 N HCI in water was added at 50 ul per well to lyse cells. Plates incubated overnight for complete lyses were read on a microtitre plate reader at 570/650 nm wavelengths to determine cell optical density (O.D.). Raw data were analysed for percent inhibition by the following formula: O.D. test well−O.D. virus control×100 O.D. cell control−O.D. virus control The 50% effective concentration (EC50) was calculated by the median effect equation (Chou, 1975, Proc. Int. Cong. Pharmacol. 6th p. 619) to determine the efficacy of compound. The 50% lethal concentration (LC50) was calculated using uninfected MT4 cells.
(§2) Under these conditions, the following data were obtained (n=4 duplicate determinations: […]

uninfected MT4 cells = assay type: cell-based; conditions: n=4 duplicate determinations, read-out: LC50 (the source's name)
Text: as §1, §2

[1] = Inhibitor Concentration 0.5 nanomolar

Q: With `CC(C)[C@@H](C(=O)N[C@@H](Cc1ccccc1)C[C@H](O)[C@H](Cc1ccccc1)NC(=O)O[C@@H]1CCS(=O)(=O)[C@@H]1C(C)C)N1CCCNC1=O` (racemic) [Example 22E, (2S,3S,5S)-2-(cis(±)-1,1-Dioxo-2-isopropyl-3-tetrahydrothiophenoxy)amino-3-hydroxy-5-(2S-(1-tetrahydropyrimid-2-onyl)-3-methylbutanoyl)amino-1,6-diphenylhexane] as the molecule, how does the “Percent Inhibition” value (HIV protease; [1]) read?
A: 71.8%

Q: Which “Percent Inhibition” value (HIV protease; [1]) does the source give for `Cc1cccc(C)c1/C=C/C(=O)N[C@@H](Cc1ccccc1)[C@@H](O)C[C@H](Cc1ccccc1)NC(=O)[C@H](C(C)C)N1CCCNC1=O` (relative stereo) [Example 19E] here?
A: 68.5%

Q: What about the IC50 (HIVIIIB) of the same molecule?
A: 0.395 µM

Q: And the CC50 (uninfected MT4 cells)?
A: 18000 nM

Q: `Cc1cccc(C)c1OCC(=O)N[C@@H](Cc1ccccc1)[C@@H](O)C[C@H](Cc1ccccc1)NC(=O)[C@H](C(C)C)N1CCNC1=O` [Example 1P, (2S,3S,5S)-2-(2,6-dimethylphenoxyacetyl)amino-3-hydroxy-5-[2S-(1-imidazolidin-2-onyl)-3-methyl-butanoyl]amino-1,6-diphenylhexane] was tested. Which “Percent Inhibition” value (HIV protease; [1]) did it give?
A: 92.6%

Q: And the IC50 (HIVIIIB)?
A: 0.01 µM

Q: What about the CC50 (uninfected MT4 cells) of the same molecule?
A: 41300 nM

Q: With `Cc1cccc(C)c1OCC(=O)N[C@@H](Cc1ccccc1)[C@@H](O)C[C@H](Cc1ccccc1)NC(=O)[C@H](C(C)C)N1CCCNC1=O` [Example 2B, (2S,3S,5S)-2-(2,6-Dimethylphenoxyacetyl)amino-3-hydroxy-5-[2S-(1-tetrahydro-pyrimid-2-onyl)-3-methylbutanoyl]amino-1,6-diphenylhexane] as the molecule, how does the “Percent Inhibition” value (HIV protease; [1]) read?
A: 93.2%

Q: And the IC50 (HIVIIIB)?
A: 0.016 µM

Q: What about the CC50 (uninfected MT4 cells) of the same molecule?
A: 17800 nM

Q: How did the “Percent Inhibition” value (HIV protease; [1]) turn out when `Cc1cccc(C)c1OCC(=O)N[C@@H](Cc1ccccc1)[C@@H](O)C[C@H](Cc1ccccc1)NC(=O)[C@H](C(C)C)N1CCOC1=O` [Example 3C, (2S,3S,5S)-2-(2,6-Dimethylphenoxyacetyl)amino-3-hydroxy-5-[2S-(3-oxazolidin-2-onyl)-3-methyl-butanoyl]amino-1,6-diphenylhexane] was run?
A: 86.9%

Q: What about the IC50 (HIVIIIB) of the same molecule?
A: 0.025 µM

Q: And the CC50 (uninfected MT4 cells)?
A: 49500 nM

Q: Which “Percent Inhibition” value (HIV protease; [1]) does the source give for `CC(C)[C@@H](C(=O)N[C@@H](Cc1ccccc1)C[C@H](O)[C@H](Cc1ccccc1)NC(=O)O[C@H]1CO[C@H]2OCC[C@H]21)N1CCN(C)C1=O` [Example 4F, (2S,3S,5S)-2-[(3R, 3aS, 6aR)-Bis-tetrahydrofuranyloxy]amino-3-hydroxy-5-[2S-(3-methyl-1-imidazolidin-2-onyl)-3-methylbutanoyl]amino-1,6-diphenylhexane] here?
A: 49.7%

Q: What about the IC50 (HIVIIIB) of the same molecule?
A: 0.101 µM

Q: And the CC50 (uninfected MT4 cells)?
A: > 100000 nM

Q: Which results are given for `CC(C)[C@@H](C(=O)N[C@@H](Cc1ccccc1)C[C@H](O)[C@H](Cc1ccccc1)NC(=O)O[C@H]1CO[C@H]2OCC[C@H]21)N1CCNC1=O` [Example 5, (2S,3S,5S)-2-[(3R,3aS,6aR)-Bis-tetrahydrofuranyloxy]amino-3-hydroxy-5-[2S-(1-imidazolidin-2-onyl)-3-methylbutanoyl]amino-1,6-diphenylhexane]?
A: Percent Inhibition (HIV protease; [1]): 80.8%; IC50 (HIVIIIB): 0.368 µM; CC50 (uninfected MT4 cells): > 100000 nM

Q: Which results are given for `CC(C)[C@@H](C(=O)N[C@@H](Cc1ccccc1)C[C@H](O)[C@H](Cc1ccccc1)NC(=O)OCc1cncs1)N1CCNC1=O` [Example 6F, (2S,3S,5S)-2-(N-((5-Thiazolyl)methoxycarbonyl)amino)-5-((2S-(1-imidazolidin-2-onyl)-3-methyl-butanoyl)-amino)-3-hydroxy-1,6-diphenylhexane]?
A: Percent Inhibition (HIV protease; [1]): 61.4%; IC50 (HIVIIIB): 0.193 µM; CC50 (uninfected MT4 cells): > 100000 nM

Q: Which results are given for `CC(C)(C)[C@@H](C(=O)N[C@@H](Cc1ccccc1)C[C@H](O)[C@H](Cc1ccccc1)NC(=O)OCc1cncs1)N1CCNC1=O` [Example 7B, (2S,3S,5S)-2-(N-((5-Thiazolyl)-methoxycarbonyl)amino)-3-hydroxy-5-(2S-(1-imidazolidin-2-onyl)-3,3-dimethylbutanoyl)amino-1,6-diphenylhexane]?
A: Percent Inhibition (HIV protease; [1]): 67.1%; IC50 (HIVIIIB): 0.204 µM; CC50 (uninfected MT4 cells): > 100000 nM

Q: How did the “Percent Inhibition” value (HIV protease; [1]) turn out when `Cc1cccc(C)c1OCC(=O)N[C@@H](Cc1ccccc1)[C@@H](O)C[C@H](Cc1ccccc1)NC(=O)[C@@H](N1CCNC1=O)C(C)(C)C` [Example 8, (2S,3S,5S)-2-(2,6-Dimethylphenoxyacetyl)amino-3-hydroxy-5-(2S-(1-imidazolidin-2-onyl)-3,3-dimethylbutanoyl)amino-1,6-diphenylhexane] was run?
A: 55.6%

Q: And the IC50 (HIVIIIB)?
A: 0.019 µM

Q: What about the CC50 (uninfected MT4 cells) of the same molecule?
A: 17800 nM

Q: What does the source list for `Cc1cccc(C)c1OCC(=O)N[C@@H](Cc1ccccc1)[C@@H](O)C[C@H](Cc1ccccc1)NC(=O)[C@H](C(C)C)N1CCNC1=S` [Example 9B, (2S,3S,5S)-2-(2,6-Dimethylphenoxyacetyl)amino-3-hydroxy-5-(2S-(1-imidazolidin-2-thionyl)-3-methylbutanoyl)amino-1,6-diphenylhexane]?
A: Percent Inhibition (HIV protease; [1]): 62.6%; IC50 (HIVIIIB): 0.272 µM; CC50 (uninfected MT4 cells): 19300 nM

Q: Which results are given for `Cc1cc(N)cc(C)c1OCC(=O)N[C@@H](Cc1ccccc1)[C@@H](O)C[C@H](Cc1ccccc1)NC(=O)[C@H](C(C)C)N1CCNC1=O` [Example 10F, (2S,3S,5S)-2-(4-Amino-2,6-dimethylphenoxyacetyl)amino-3-hydroxy-5-(2S-(1-imidazolidin-2-onyl)-3-methyl-butanoyl)amino-1,6-diphenylhexane]?
A: Percent Inhibition (HIV protease; [1]): 81.0%; IC50 (HIVIIIB): 0.047 µM; CC50 (uninfected MT4 cells): 92000 nM

Q: Which results are given for `Cc1cc(C)c(OCC(=O)N[C@@H](Cc2ccccc2)[C@@H](O)C[C@H](Cc2ccccc2)NC(=O)[C@H](C(C)C)N2CCNC2=O)c(C)c1` [Example 11B, (2S,3S,5S)-2-(2,4,6-Trimethylphenoxyacetyl)amino-3-hydroxy-5-(2S-(1-imidazolidin-2-onyl)-3-methylbutanoyl)amino-1,6-diphenylhexane]?
A: Percent Inhibition (HIV protease; [1]): 91.1%; IC50 (HIVIIIB): 0.19 µM; CC50 (uninfected MT4 cells): 18200 nM

Q: Which results are given for `Cc1cc(F)cc(C)c1OCC(=O)N[C@@H](Cc1ccccc1)[C@@H](O)C[C@H](Cc1ccccc1)NC(=O)[C@H](C(C)C)N1CCNC1=O` [Example 12B, (2S,3S,5S)-2-(4-Fluoro-2,6-dimethylphenoxyacetyl)amino-3-hydroxy-5-(2S-(1-imidazolidin-2-onyl)-3-methyl-butanoyl)amino-1,6-diphenylhexane]?
A: Percent Inhibition (HIV protease; [1]): 76.8%; IC50 (HIVIIIB): 0.093 µM; CC50 (uninfected MT4 cells): 19100 nM

Q: Which “Percent Inhibition” value (HIV protease; Inhibitor Concentration 1.0 nanomolar) does the source give for `Cc1ncnc(C)c1OCC(=O)N[C@@H](Cc1ccccc1)[C@@H](O)C[C@H](Cc1ccccc1)NC(=O)[C@H](C(C)C)N1CCNC1=O` [Example 13B, (2S,3S,5S)-2-(4,6-Dimethylpyrimidin-5-oxy-acetyl)amino-3-hydroxy-5-(2S-(1-imidazolidin-2-onyl)-3-methyl-butanoyl)amino-1,6-diphenylhexane] here?
A: 56.2%

Q: Which results are given for `Cc1ccnc(C)c1OCC(=O)N[C@@H](Cc1ccccc1)[C@@H](O)C[C@H](Cc1ccccc1)NC(=O)[C@@H](N1CCNC1=O)C(C)(C)C` [Example 14D, (2S,3S,5S)-2-(2,4-Dimethyl-pyridin-3-oxy-acetyl)amino-3-hydroxy-5-(2S-(1-imidazolidin-2-onyl)-3,3-dimethylbutanoyl)amino-1,6-diphenylhexane]?
A: Percent Inhibition (HIV protease; [1]): 52.7%; IC50 (HIVIIIB): 0.053 µM; CC50 (uninfected MT4 cells): > 100000 nM

Q: With `Cc1cccc(C)c1CCC(=O)N[C@@H](Cc1ccccc1)[C@@H](O)C[C@H](Cc1ccccc1)NC(=O)[C@H](C(C)C)N1CCCNC1=O` [Example 20D, (2S,3S,5S)-2-(3-(2,6-Dimethylphenyl)propanoyl)amino-3-hydroxy-5-(2S-(1-tetrahydropyrimidin-2-onyl)-3-methyl-butanoyl)amino-1,6-diphenylhexane] as the molecule, how does the IC50 (HIVIIIB) read?
A: 0.283 µM

Q: And the CC50 (uninfected MT4 cells)?
A: 24100 nM

Q: With `Cc1cccc(C)c1OCC(=O)N[C@@H](Cc1ccccc1)[C@@H](O)C[C@H](Cc1ccccc1)NC(=O)[C@H](C(C)C)N1CCC(=O)NC1=O` [Example 23C, (2S,3S,5S)-2-(2,6-Dimethylphenoxyacetyl)amino-3-hydroxy-5-(2S-(1-dihydropyrimid-2,4-dionyl)-3-methyl-butanoyl)amino-1,6-diphenylhexane] as the molecule, how does the “Percent Inhibition” value (HIV protease; [1]) read?
A: 86.0%
